This note sets out measurements from patent US20220088011A1, “THERAPEUTIC AGENT FOR A TUMOR COMPRISING AN IDO INHIBITOR ADMINISTERED IN COMBINATION WITH AN ANTIBODY” (KYOWA KIRIN CO., LTD., priority 2015, published 2022).

In data set [1] the test system is TL-Om1 cells. Put plainly: ADCC of mogamulizumab against TL-Om1 cells by purified human NK cells pre-incubated in conditioned medium. In kind it is cell-based. The protocol: (§1) KATO-III cells (1.25×10^6 cells) were treated with 25 ng/mL recombinant human IFN-γ. […] Three days later, cells and supernatants were separated by centrifugation. The supernatants were used as conditioned medium. The conditioned medium was used for incubation of human PBMCs or NK cells (section 2.4.2), and measurement of Kyn and Trp (section 2.4.4).
(§2) NK cells were isolated from human PBMCs using NK isolation kit (Miltenyi Biotec, Cat. No. 130-092-657) and autoMACS instrument. Human PBMCs or NK cells were cultured in the conditioned medium (section 2.4.1) in a CO2 incubator. After 7 days, cells were harvested and counted, and used as effector cells. […] The radioactivity was counted with a microplate scintillation counter (TopCount NXT, PerkinElmer).
(§3) The percentage of cytotoxicity was calculated according to the following formula: […]
(§4) E is the experimental released radioactivity (cpm), S is the mean of spontaneous released radioactivity (cpm) by adding the assay medium instead of effector cells and antibody, and M is the mean of maximum released radioactivity (cpm) by adding 10 vol % Triton™ X-100 (Sigma-Aldrich, Cat. No. T9284-100ML) instead of effector cells and antibody. […]

For data set [2], the system named is TL-Om1 cells. Put plainly: ADCC of mogamulizumab against TL-Om1 cells by human PBMCs pre-incubated in medium containing the compound itself. Conditions: human PBMCs pre-incubated in medium containing 100 nmol/L compound for 7 days. Format: cell-based. Here is the method:
NK cells were isolated from human PBMCs using NK isolation kit (Miltenyi Biotec, Cat. No. 130-092-657) and autoMACS instrument. Human PBMCs or NK cells were cultured in the conditioned medium (section 2.4.1) in a CO2 incubator. After 7 days, cells were harvested and counted, and used as effector cells. PBMCs and NK cells used as effector cells were suspended in the assay medium (RPMI1640 containing 10 vol % heat-inactivated fetal bovine serum and 1 vol % Penicillin-Streptomycin) to 5×10^6 cells/mL (PBMCs) or 4×10^5 cells/mL (NK cells). TL-Om1 cells, HH cells, SK-BR-3 cells, Raji cells or A431 cells (1×10^6 cells/each cell line) were labeled with 1.85 MBq of Na2^51CrO4 (PerkinElmer) for over 1 hour at 37° C. in a CO2 incubator. The cells were washed 3 times with assay medium. The radiolabeled cells used as target cells were suspended in 5 mL of the assay medium to 2×10^5 cells/mL. […] Fifty μL of the target cells (1×10^4 cells) were plated into 96-well round bottomed culture plates and mixed with 50 μL of antibody dilutions prepared as described above and 50 μL of the effector cells (2.5×10^5 cells). The culture plates were briefly centrifuged at 4° C. and incubated at 37° C. in a CO2 incubator for about 4 hours. […] The radioactivity was counted with a microplate scintillation counter (TopCount NXT, PerkinElmer).

In data set [3] the test system is SKOV3 cells. Put plainly: Cytotoxicity of PBMCs against SKOV3 cells with or without Antibody C1 (51Cr release). Conditions: PBMCs pre-incubated 7 days in conditioned medium of SKOV3 + 50 ng/mL IFNγ + 100 nmol/L compound, vs conditioned medium DMSO. Format: cell-based, human. Here is the method:
The supernatants of each culture were used as the conditioned medium for pre-incubation of PBMCs.
SKOV3 cells were detached from culture flasks by TrypLE Express (GIBCO). The live cells were adjusted to 1.0×10^6 cells by the ADCC assay medium [RPMI1640 without phenol red (GIBCO) with 10 vol % of dialyzed and heat-inactivated FCS(GIBCO)]. Then, the cells were labeled with approx. 3.7 MBq of Na2^51CrO4 (PerkinElmer) for over 1 hour at 37° C. in a CO2 incubator. The cells were washed three times, and adjusted to 2.0×10^5 cells/mL (1×10^4 cells/50 μL) as the target cells using the ADCC assay medium.
Human PBMCs were cultured in 25 mL of the conditioned medium for 7 days. […]
The cytotoxicity was quantified by measurement of radioactivity in the supernatant of each assay well. […]
Total, T spo, M, or Assay sample was defined and prepared as follows. • Total: Target cell total radioactivity control. This sample was prepared by mixing 50 μL of target cell, 15 μL of detergent (10×Lysis Solution, Promega), and 85 μL of the ADCC assay medium. • T spo: Target cell spontaneous radioactivity control. […]
Each sample was prepared in triplicate. […] The radioactivity (cpm) was counted with a microplate scintillation counter (TopCount NXT, PerkinElmer).
The cytotoxicity (%) was calculated by the following equations using the cpm of each well. […]

Data set [4] concerns Raji cells. Put plainly: ADCC of rituximab against Raji cells by human PBMCs pre-incubated in conditioned medium. In kind it is cell-based. Conditions: human PBMCs pre-incubated 7 days in conditioned medium of KATO-III + IFN-γ + 100 nmol/L compound. Here is the method: as §1
(§5) NK cells were isolated from human PBMCs using NK isolation kit (Miltenyi Biotec, Cat. No. 130-092-657) and autoMACS instrument. Human PBMCs or NK cells were cultured in the conditioned medium (section 2.4.1) in a CO2 incubator. After 7 days, cells were harvested and counted, and used as effector cells. PBMCs and NK cells used as effector cells were suspended in the assay medium (RPMI1640 containing 10 vol % heat-inactivated fetal bovine serum and 1 vol % Penicillin-Streptomycin) to 5×10^6 cells/mL (PBMCs) or 4×10^5 cells/mL (NK cells). TL-Om1 cells, HH cells, SK-BR-3 cells, Raji cells or A431 cells (1×10^6 cells/each cell line) were labeled with 1.85 MBq of Na2^51CrO4 (PerkinElmer) for over 1 hour at 37° C. in a CO2 incubator. The cells were washed 3 times with assay medium. The radiolabeled cells used as target cells were suspended in 5 mL of the assay medium to 2×10^5 cells/mL. […]

For data set [5], the system named is TL-Om1 cells. Put plainly: ADCC of mogamulizumab against TL-Om1 cells by human PBMCs pre-incubated in conditioned medium. In kind it is cell-based. The protocol: as §1, §2, §3, §4
Data set [6] deals with A431 cells. Put plainly: ADCC of cetuximab against A431 cells by human PBMCs pre-incubated in conditioned medium. Format: cell-based. Conditions: human PBMCs pre-incubated 7 days in conditioned medium of KATO-III + IFN-γ + 100 nmol/L compound. The protocol:
as §1, §5

For data set [7], the system named is HH cells. Put plainly: ADCC of mogamulizumab against HH cells by human PBMCs pre-incubated in conditioned medium. Format: cell-based. The protocol: as §1, §2, §3, §4
In data set [8] the test system is SK-BR-3 cells. Put plainly: ADCC of trastuzumab against SK-BR-3 cells by human PBMCs pre-incubated in conditioned medium. In kind it is cell-based. Conditions: human PBMCs pre-incubated 7 days in conditioned medium of KATO-III + IFN-γ + 100 nmol/L compound. Here is the method:
as §1, §5

The subject of data set [9] is TL-Om1 cells. Put plainly: ADCC of mogamulizumab against TL-Om1 cells by human PBMCs pre-incubated in conditioned medium of shRNA KATO-III cells. In kind it is cell-based. Conditions: PBMCs pre-incubated in conditioned medium 3 (parent + IFN-γ) or 4 (NegaCTRL shRNA + IFN-γ) compared with conditioned medium 1 or 2. Here is the method:
Parental KATO-III or KATO-III cells stably expressing IDO1 shRNA or NegaCTRL shRNA (1.25×10^6 cells) were treated with 25 ng/mL recombinant human IFN-γ. Cells were incubated in a CO2 incubator. Three days later, cells and supernatants were separated by centrifugation. The supernatants were used as conditioned medium. The conditioned medium was used for incubation of human PBMCs (Section 7.4.5), and measurement of Kyn and Trp (Section 7.4.7).
Human PBMCs were cultured in each conditioned medium (Section 7.4.4) in a CO2 incubator. After 7 days, cells were harvested and counted, and used as effector cells. PBMCs used as effector cells were suspended in the assay medium (RPMI1640 containing 10 vol % heat-inactivated fetal bovine serum and 1 vol % Penicillin-Streptomycin) to 5×10^6 cells/mL. […] The radioactivity was counted with a microplate scintillation counter (TopCount NXT, PerkinElmer).
as §3, §4

In the case of `NS(=O)(=O)NCCNc1nonc1C(=NO)Nc1ccc(F)c(Br)c1` [Compound B1, 4-({2-[(aminosulfonyl)amino]ethyl}amino)-N-(3-bromo-4-fluorophenyl)-N′-hydroxy-1,2,5-oxadiazole-3-carboximidamide], the “effect on the attenuation of ADCC of mogamulizumab by NK cells” value in [1] (purified human NK cells pre-incubated in conditioned medium of KATO-III + IFN-γ + 100 nmol/L compound, TL-Om1 target cells) is “canceled”. For the same molecule, in [2], the “effect of the compound itself on ADCC of mogamulizumab” value is recorded as “did not influence”. Also, the “cytotoxicity without Antibody C1 (natural killing activity) of PBMCs against SKOV3 cells” value in data set [3] is listed as “higher”. Besides, the “cytotoxicity of PBMCs against SKOV3 cells in the presence of Antibody C1” value in [3] (Antibody C1 0.033-333 ng/mL) is listed as “higher”. The “effect on the attenuation of ADCC of rituximab against Raji cells” value in [4] is “canceled the attenuation”. The “effect on the attenuation of ADCC of mogamulizumab against TL-Om1 cells” value in data set [5] (human PBMCs (donor 1, donor 2) pre-incubated 7 days in conditioned medium of KATO-III + IFN-γ + 100 nmol/L compound) is reported as “canceled the attenuation”. The “effect on the attenuation of ADCC of cetuximab against A431 cells” value in data set [6] was “canceled the attenuation”. Further, in data set [7] (human PBMCs pre-incubated 7 days in conditioned medium of KATO-III + IFN-γ + 100 nmol/L compound), the “effect on the attenuation of ADCC of mogamulizumab against HH cells” value is on record as “canceled the attenuation”. For the same molecule, the “effect on the attenuation of ADCC of trastuzumab against SK-BR-3 cells” value in [8] is listed as “canceled the attenuation”.

B1: mogamulizumab: humanized anti CCR4 monoclonal antibody (antibody, chains of the INN, looked up, V domains shown)
VH: EVQLVESGGDLVQPGRSLRLSCAASGFIFSNYGMSWVRQAPGKGLEWVATISSASTYSYYPDSVKGRFTISRDNAKNSLYLQMNSLRVEDTALYYCGRHSDGNFAFGYWGQGTLVTVSS
VL: DVLMTQSPLSLPVTPGEPASISCRSSRNIVHINGDTYLEWYLQKPGQSPQLLIYKVSNRFSGVPDRFSGSGSGTDFTLKISRVEAEDVGVYYCFQGSLLPWTFGQGTKVEIK
As for B1, the “ADCC by NK cells against TL-Om1 cells” value in [1] (purified NK cells pre-incubated in conditioned medium 2 (KATO-III + IFN-γ)) was “attenuated”. Moreover, the “ADCC against TL-Om1 cells” value is recorded as “attenuated” in [5] (PBMCs (donor 1, donor 2) pre-incubated in conditioned medium 2 (KATO-III + IFN-γ) compared with conditioned medium 1) and “attenuated” in data set [9]. The “ADCC against HH cells” value in [7] (PBMCs pre-incubated in conditioned medium 2 (KATO-III + IFN-γ)) is given as “attenuated”.
